pIC50: −log10 of the molar value.
How the values were obtained:
MIA PaCa2 cells [1] = test: Cell viability / cytotoxic effect in MIA PaCa2 cells (EZ-CYTOX/MTT); type: cell-based; settings: Homo sapiens, MIA PaCa-2, 2.5-40 µM, 24 h, relative IC50
Description: The human pancreatic ductal epithelial cell lines MIA Paca2, PANC-1 were maintained in DMEM media with 10% fetal bovine serum (FBS), 100 U/mL penicillin, and 100 µg/mL streptomycin at 37 °C in a humidified 5% CO2/95% air atmosphere. Cells were seeded in 96-well plates at a density of 3000 cells/100 μL/well and incubated for 24 h. The cells were then incubated in a culture medium containing synthetic compounds. Following 24 h of incubation, the cell viability was determined using an EZ-CYTOX kit (DaeilLab Service, Seoul, Korea) according to the manufacturer’s protocol (n = 12).
Supplementary Figure 1. Relative IC50 determination of Compound 5, Compound 10, PF-543, and FTY720. MIAPaCa2 cells were seeded in 96 well plates and treated with 2.5-40 µ M of compounds for 24h. Cell viability was assessed using MTT assay, and Relative IC50 was determined using Graph pad prism software. The result is representative of three independent experiments and data are presented as mean ± SD. *** p < 0.001 compared with non-treated […]
(1 picture or pasted object on this page, not shown here)

SK1 = tested on: SK1; set-up: method as in PMID 30889352; settings: cited from earlier work
SK2 = tested on: SK2; set-up: method as in PMID 30889352; settings: cited from earlier work
[2] = In vitro metabolic stability in rat liver microsomes; type: in vitro ADME; settings: NADPH, 30 min
MIA PaCa2 cells [3] = test: Western blot of apoptosis-related proteins; type: cell-based, human; settings: 20 µM, 24 h
Description: Cell extracts from MIA Paca2 cells were determined by BCA Protein Assay Kit (Thermo Scientific) according to the manufacturer’s instructions. Separate 20–30 μg protein by electrophoresis using Tris-Glycine gel and transfer to PVDF membranes. After transferring and blocking, the membrane was incubated with the primary antibody in TBS-T buffer containing 5% skim milk overnight at 4 °C. Then, the membrane was washed three times with TBS-T, and the secondary antibody was incubated. Chemiluminescence detection was performed using a Western blot detection kit (Milipore). Bax, Bcl-2, Caspase-3, PARP, AKT, p-AKT, ERK, and p-ERK were used for Western blot analysis. Internal controls were detected using Actin antibody.

MIA PaCa2 cells [4] = test: Annexin-V apoptosis assay (flow cytometry); type: cell-based, human; settings: 20 µM
Description: Cell apoptosis assay was determined using annexin V- FITC and propidium iodide (PI) staining, as described in manufacturer instruction (BioBud, Gyeonggi-do, Korea). Briefly, the cells were resuspended in binding buffer and then incubated with annexin-V-FITC and propidium iodide at room temperature. After incubation, stained cells were analyzed by MACSQuant Analyzer 10 Flow Cytometer (Miltenyi Biotec, Bergisch Gladbach, Germany). The experiment was conducted three times independently (n = 6).

PP2A = PP2A immunoprecipitation phosphatase activity assay in MIA PaCa2 cells; type: cell-based, human; settings: 20 µM
Description: PP2A activity assay was a PP2A immunoprecipitation phosphatase assay kit operated according to the manufacturer’s instruction. Briefly, a prepared protein aliquot was incubated with anti-PP2A subunit C-antibody and protein A agarose slurry at 4 °C for 2–3 h, and then phosphopeptide was added. Samples were recorded by Thermo Scientific Multiskan GO.

SPHK1 = molecular target: T1, SPHK1 (Homo sapiens, UniProt Q9NYA1); test: Sphingosine kinase 1 activity assay (Adapta screening system); type: biochemical; settings: 20 µM compound
T1 construct: purchased Thermo Fisher Scientific
T1 sequence (Q9NYA1 whole entry): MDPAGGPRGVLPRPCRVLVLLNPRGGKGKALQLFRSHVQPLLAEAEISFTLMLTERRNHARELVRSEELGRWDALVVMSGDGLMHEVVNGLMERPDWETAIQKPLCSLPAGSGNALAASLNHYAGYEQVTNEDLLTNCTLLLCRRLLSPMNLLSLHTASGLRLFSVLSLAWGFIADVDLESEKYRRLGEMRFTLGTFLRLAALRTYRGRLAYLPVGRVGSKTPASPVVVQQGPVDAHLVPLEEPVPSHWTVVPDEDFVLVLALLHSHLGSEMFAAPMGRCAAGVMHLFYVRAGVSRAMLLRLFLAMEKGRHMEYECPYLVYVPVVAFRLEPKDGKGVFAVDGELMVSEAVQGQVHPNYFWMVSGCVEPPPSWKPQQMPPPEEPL
Description: (§1) SK 1/2 activity was measured using 20 μM PF-543 and compounds 1–10 using the AdaptaTM screening system (Thermo Fisher Scientific system). Sphingosine kinase 1 activity assay used 0.04–0.16 ng SPHK1, 50 μM sphingosine lipid substrate in 32.5 mM HEPES pH 7.5, 0.005% BRIJ 35, 5 mM MgCl2, 0.5 mM EGTA. Sphingosine kinase 2 activity assay detected 35–140 ng SPHK2, 50 μM sphingosine lipid substrate in 32.5 mM HEPES pH 7.5, 0.5 mM EGTA, and 1.5 mM MgCl2.

[5] = In vitro metabolic stability in mouse liver microsomes; type: in vitro ADME; settings: NADPH, 30 min
MIA PaCa2 cells [6] = test: Mitochondrial membrane potential, JC-10 staining; type: cell-based, human; settings: 20 µM
Description: To measure the degree of MMP change of cancer cells, 20 μM JC-10 dye and assay buffer (Enzo Co., New York, NY, USA) were added to the cells cultured for 24 h and mixed until the cells were completely dissolved. Subsequently, the cells were incubated in the dark for 30 min at room temperature. The solutions were protected from light and analyzed by using flow cytometry.

[7] = In vitro metabolic stability in dog liver microsomes; type: in vitro ADME; settings: NADPH, 30 min
SPHK2 = molecular target: T2, SPHK2 (Homo sapiens, UniProt Q9NRA0); test: Sphingosine kinase 2 activity assay (Adapta screening system); type: biochemical; settings: 20 µM compound
T2 construct: purchased Thermo Fisher Scientific
T2 sequence (Q9NRA0 1-654): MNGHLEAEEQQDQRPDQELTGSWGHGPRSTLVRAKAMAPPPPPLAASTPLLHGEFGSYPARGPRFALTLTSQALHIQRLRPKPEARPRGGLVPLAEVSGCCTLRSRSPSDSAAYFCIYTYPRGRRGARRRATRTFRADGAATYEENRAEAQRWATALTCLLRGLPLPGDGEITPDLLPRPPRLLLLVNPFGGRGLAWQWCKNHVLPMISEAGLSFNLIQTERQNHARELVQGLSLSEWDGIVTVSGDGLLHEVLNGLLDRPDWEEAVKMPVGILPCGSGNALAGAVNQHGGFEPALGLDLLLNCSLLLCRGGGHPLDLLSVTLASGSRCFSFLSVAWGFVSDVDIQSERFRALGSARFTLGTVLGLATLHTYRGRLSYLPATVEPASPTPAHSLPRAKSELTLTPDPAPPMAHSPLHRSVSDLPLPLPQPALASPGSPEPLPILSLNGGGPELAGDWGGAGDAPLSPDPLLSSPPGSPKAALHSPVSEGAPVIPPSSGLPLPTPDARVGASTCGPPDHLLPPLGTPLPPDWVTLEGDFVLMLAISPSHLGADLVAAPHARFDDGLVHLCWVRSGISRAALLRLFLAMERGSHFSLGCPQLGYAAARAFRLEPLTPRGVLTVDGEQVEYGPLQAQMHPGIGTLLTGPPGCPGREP
Description: as §1

MIA PaCa2 cells [8] = test: Ceramide, S1P and sphingosine levels by ELISA in MIA PaCa2 cells; type: cell-based, human; settings: 20 µM
Description: Ceramide, sphingosine, and S1P level were performed as protocols recommended by Mybiosource using the ceramide, sphingosine, and S1P ELISA kit (MyBiosource Inc., San Diego, CA, USA). Ceramide and sphingosine S1P measurements were tested with proteins that were centrifuged and collected by repeating freezing and thawing from three to five times after adding PBS to cells.

[9] = In vitro metabolic stability in human liver microsomes; settings: human liver microsomes 0.5 mg/mL, NADPH, 30 min
Description: Microsomal incubations were conducted in triplicate in 0.1 M potassium phosphate buffer (pH 7.4) in a clean 1.5 mL Eppendorf tube. […] The final incubation mixtures contained 0.5 mg/mL HLM, 0.1 M potassium phosphate buffer (pH 7.4), NADPH regenerating system (1 mM NADPH, 10 mM MgCl2). HLM was added, and the mixture was pre-incubated at 37 °C in a shaking incubator at approximately 350 rpm for 5 min under a Thermo mixer (Eppendorf., Hamburg, Germany). Reactions were initiated by the addition of 1 mM NADPH and were then quenched by adding 40 µL of ice-cold acetonitrile containing 10 µM chlorpropamide (CPP) as an internal standard at 0 and 30 min. The incubation mixtures were then centrifuged at 15,000 g for 5 min at 4 °C. A 2 µL aliquot of the supernatant was directly injected into the LC-MS/MS system. The LC-MS/MS system consisted of the Nexera XR HPLC system (Shimadzu Co., Kyoto, Japan) coupled to the TSQ Vantage triple quadrupole mass spectrometer equipped with Xcalibur version 1.1.1 (Thermo Fisher Scientific Inc., Waltham, MA, USA).

Row | Structure (SMILES) | pIC50 (MIA PaCa2 cells [1]) | pIC50 (SK1) | pIC50 (SK2) | In vitro stability, Rat (%) [2] | expression of anti-apoptotic protein Bcl-2 (MIA PaCa2 cells [3]) | expression of pro-apoptotic proteins (cleaved PARP, cleaved caspase-3) (MIA PaCa2 cells [3]) | apoptotic effect (annexin-V) (MIA PaCa2 cells [4]) | PP2A activity (PP2A) | SK1-inhibitory effect (SPHK1) | In vitro stability, Mouse (%) [5] | mitochondrial membrane potential (ratio of red to green fluorescence, JC-10) (MIA PaCa2 cells [6]) | In vitro stability, Dog (%) [7] | SK2-inhibitory effect (SPHK2) | S1P level (MIA PaCa2 cells [8]) | ceramide level (MIA PaCa2 cells [8]) | sphingosine level (MIA PaCa2 cells [8]) | In vitro stability, Human (%) [9]
1 | CCCCCCCCc1ccc(CCC(N)(CO)CO)cc1 [FTY720, reference compound] | 5.02 |  |  |  |  |  |  |  |  |  |  |  |  |  |  |  | 
2 | OC[C@H]1CCCN1Cc1ccc(COc2cccc(OCc3ccc(Cl)cc3)c2)cc1 [compound 55] |  | 5.38 | 7.39 |  |  |  |  |  |  |  |  |  |  |  |  |  | 
3 | CCCCCCCCc1cn(Cc2cc(C)cc(OCc3ccc(CN4CCC(CO)CC4)cc3)c2)nn1 [Compound 10, (1-(4-((3-Methyl-5-((4-octyl-1H-1,2,3-triazol-1-yl)methyl)phenoxy)methyl)benzyl)piperidin-4-yl)methanol] | 4.95 |  |  | 53.3% | Bcl-2 decreased | cleaved form of PARP and caspase-3 increased | high apoptotic effect | activated PP2A | inhibited both SK1 and SK2 | 33.3% | significantly reduced the mitochondrial membrane potential | 58.3% | inhibited both SK1 and SK2 | reduced the levels of S1P and sphingosine | the ceramide level increased | reduced the levels of S1P and sphingosine | 66.7%
4 | Cc1cc(CS(=O)(=O)c2ccccc2)cc(OCc2ccc(CN3CCC[C@@H]3CO)cc2)c1 [PF-543] |  |  |  | 4.7% |  |  |  | also activated PP2A |  | 7.5% | significantly reduced the mitochondrial membrane potential | 2.9% |  | reduce the level of S1P | did not significantly change the levels of ceramide and sphingosine | did not significantly change the levels of ceramide and sphingosine | 
5 | Cc1cc(Cn2cc(-c3ccccc3)nn2)cc(OCc2ccc(CN3CCC(CO)CC3)cc2)c1 [Compound 5, (1-(4-((3-Methyl-5-((4-phenyl-1H-1,2,3-triazol-1-yl)methyl)phenoxy)methyl)benzyl)piperidin-4-yl)methanol] | 4.58 |  |  | 27.6% |  | insignificant compared to the compound 10 treatment group |  | little effect on PP2A |  | 17.9% | significantly reduced the mitochondrial membrane potential | 40.8% |  | increased the S1P level |  |  | 45.4%
